The text below walks through data of ChEMBL document CHEMBL5634069, “Exploring N-myristoyltransferase as a promising drug target against parasitic neglected tropical diseases” (Eur J Med Chem, 2023).

Assay [1] addresses T1, Glycylpeptide N-tetradecanoyltransferase (Plasmodium vivax (strain Salvador I), UniProt A5K1A2).
T1 sequence (A5K1A2 whole entry): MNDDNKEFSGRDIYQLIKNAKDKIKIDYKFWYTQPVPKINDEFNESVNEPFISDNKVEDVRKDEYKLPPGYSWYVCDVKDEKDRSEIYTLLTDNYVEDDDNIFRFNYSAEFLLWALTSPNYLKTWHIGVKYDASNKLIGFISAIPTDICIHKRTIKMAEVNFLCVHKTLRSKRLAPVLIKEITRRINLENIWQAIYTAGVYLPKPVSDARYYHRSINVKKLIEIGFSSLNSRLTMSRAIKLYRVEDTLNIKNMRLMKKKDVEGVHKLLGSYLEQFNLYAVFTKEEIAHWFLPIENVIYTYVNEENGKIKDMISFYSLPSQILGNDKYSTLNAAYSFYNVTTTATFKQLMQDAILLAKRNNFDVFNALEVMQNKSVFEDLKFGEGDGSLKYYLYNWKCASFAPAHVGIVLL
The assay can be described thus: Inhibition of recombinant Plasmodium vivax NMT.

For assay [2], the target named is T2, Glycylpeptide N-tetradecanoyltransferase (Plasmodium falciparum, UniProt Q9U419).
T2 sequence (Q9U419 whole entry): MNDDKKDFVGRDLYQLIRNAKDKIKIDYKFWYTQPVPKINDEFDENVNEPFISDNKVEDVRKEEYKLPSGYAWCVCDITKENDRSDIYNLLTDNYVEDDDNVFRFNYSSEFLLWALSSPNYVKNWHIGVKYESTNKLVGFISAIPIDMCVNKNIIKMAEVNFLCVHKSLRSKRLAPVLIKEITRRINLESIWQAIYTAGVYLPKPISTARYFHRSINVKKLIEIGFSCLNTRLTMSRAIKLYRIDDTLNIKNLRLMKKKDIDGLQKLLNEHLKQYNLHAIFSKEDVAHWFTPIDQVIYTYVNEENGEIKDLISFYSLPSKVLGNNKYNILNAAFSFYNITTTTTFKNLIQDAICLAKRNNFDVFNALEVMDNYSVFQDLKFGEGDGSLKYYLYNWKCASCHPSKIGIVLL
Briefly: Inhibition of recombinant Plasmodium falciparum NMT.

For assay [3], the target named is T3, Glycylpeptide N-tetradecanoyltransferase 1 (Homo sapiens, UniProt P30419).
T3 sequence (P30419 whole entry): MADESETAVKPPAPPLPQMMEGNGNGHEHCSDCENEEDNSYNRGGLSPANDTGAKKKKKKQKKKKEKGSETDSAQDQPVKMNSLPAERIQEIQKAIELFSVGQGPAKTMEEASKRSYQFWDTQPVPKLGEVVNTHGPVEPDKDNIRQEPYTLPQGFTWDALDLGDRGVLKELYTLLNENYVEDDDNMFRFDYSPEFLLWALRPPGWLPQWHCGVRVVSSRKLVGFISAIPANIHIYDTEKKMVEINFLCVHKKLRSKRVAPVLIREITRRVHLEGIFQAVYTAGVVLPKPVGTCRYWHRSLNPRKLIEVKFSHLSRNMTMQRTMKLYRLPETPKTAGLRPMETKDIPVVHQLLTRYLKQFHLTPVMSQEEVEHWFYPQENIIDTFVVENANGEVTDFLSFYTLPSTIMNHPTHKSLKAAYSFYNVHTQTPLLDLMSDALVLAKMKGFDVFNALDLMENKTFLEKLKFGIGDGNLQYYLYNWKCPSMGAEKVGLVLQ
Briefly: Inhibition of recombinant human NMT.

The target in assay [4] is T2, Glycylpeptide N-tetradecanoyltransferase. The assay can be described thus: Binding affinity to Plasmodium falciparum NMT assessed as inhibition constant using GSNKSKPKDASQRRR-NH2 as peptide substrate.
For assay [5], the target named is T1, Glycylpeptide N-tetradecanoyltransferase. Briefly: Binding affinity to Plasmodium vivax NMT assessed as inhibition constant using YnMyr-CoA as substrate.
Assay [6] is described as follows: Inhibition of recombinant Leishmania donovani NMT.
Assay [7] can be described thus: Inhibition of full length Brugia malayi NMT expressed in Escherichia coli incubated for 10 mins by liquid scintillation analysis.
A short description of assay [8]: Inhibition of full length Caenorhabditis elegans NMT expressed in Escherichia coli incubated for 10 mins by liquid scintillation analysis.

In general, IC50 refers to the concentration at which inhibition is half-maximal. On to `NCCCCCCCCCC(=O)N[C@@H](CO)C(=O)N[C@@H](CCCCN)C(=O)NCCC1CCCCC1`, for which the IC50 in assay [1] came out at 680 nM; in assay [2] it was 24300 nM; in assay [3] it was 60 nM.
By Ki is commonly meant a measure of affinity in units of concentration, obtained from inhibition or displacement. In the case of `Cc1nn(C)c(C)c1Cc1nnc(-c2sc3ccccc3c2NC2CCNCC2)o1`, the Ki came out at 8 nM in assay [4] and 2.7 nM in assay [5].
With `CCOC(=O)c1cnc2ccc(OCc3ccc(N4CCNCC4)nc3)cc2c1SCCC#N`, the IC50 in assay [6] was determined as 24 nM.
On to `Cc1nn(C)c(CC(C)C)c1NS(=O)(=O)c1c(Cl)cc(-c2cccc(C(C)(C)N)c2)cc1Cl`, for which the 50% inhibitory concentration (IC50) was 2000 nM in assay [7] and 10 nM in assay [8].
